Assays:
[1] = Lability of SINT1 over the course of the studies; format: physicochemical; settings: activity decreased over the course of the studies
Procedure: SINT1 is labile, and over the course of completing these studies its activity decreased. […] Therefore, we first evaluated its pharmacokinetics before in vivo studies were carried out to determine dose and route of delivery.

[2] = target: T1, glucocorticoid receptor (GR)-α (Homo sapiens, UniProt P04150); test: Steroid receptor specificity: GRE-luciferase reporter in LNCaP cells; format: cell-based; settings: 10 μM compound, 10 nM dexamethasone, 48 h
T1 construct: expressed in transfected cells; host or cells: LNCaP
T1 sequence (P04150 1-777): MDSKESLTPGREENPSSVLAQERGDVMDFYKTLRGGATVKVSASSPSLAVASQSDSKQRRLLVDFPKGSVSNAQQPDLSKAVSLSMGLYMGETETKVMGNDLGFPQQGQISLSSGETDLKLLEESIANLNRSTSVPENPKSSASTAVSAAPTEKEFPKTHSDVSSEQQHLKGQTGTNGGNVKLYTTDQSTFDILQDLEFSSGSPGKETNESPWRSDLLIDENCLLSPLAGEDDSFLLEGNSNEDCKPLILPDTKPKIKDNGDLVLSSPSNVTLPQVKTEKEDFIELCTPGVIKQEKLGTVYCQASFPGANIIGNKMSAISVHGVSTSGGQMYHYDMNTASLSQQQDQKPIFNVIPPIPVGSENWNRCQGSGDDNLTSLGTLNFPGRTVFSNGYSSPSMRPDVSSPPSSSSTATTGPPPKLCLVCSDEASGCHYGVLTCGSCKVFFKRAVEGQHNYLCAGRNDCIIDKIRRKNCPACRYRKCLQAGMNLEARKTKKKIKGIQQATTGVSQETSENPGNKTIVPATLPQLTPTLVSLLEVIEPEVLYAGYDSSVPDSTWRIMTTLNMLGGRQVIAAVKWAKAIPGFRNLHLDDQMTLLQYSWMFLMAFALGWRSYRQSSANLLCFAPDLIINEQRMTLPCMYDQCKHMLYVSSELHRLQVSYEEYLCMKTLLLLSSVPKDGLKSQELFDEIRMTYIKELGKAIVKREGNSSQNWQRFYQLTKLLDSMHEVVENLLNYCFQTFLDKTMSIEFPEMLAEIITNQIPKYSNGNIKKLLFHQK
Procedure: LNCaP cells were transfected with the reporter plasmid PSA(6.1kb)-luciferase, PRE-luciferase, or GRE-luciferase and expression vector for progesterone receptor (PR)-β or glucocorticoid receptor (GR)-α in serum-free, phenol red-free medium using Lipofectin (Invitrogen). […] After 48 h of treatment, cells were lysed and analyzed for luciferase activities.
FIGURE 1. […] A, LNCaP cells were transfected with PSA (6.1 kb)-luciferase, PRE-luciferase, or GRE-luciferase reporters and expression vector for PRβ or GRα. […] Error bars represent mean percentage of vehicle activity ±S.E. of at least three independent experiments with triplicate wells. SINT1, 10 μM; […]; ***, p < 0.001. […]. Error bars represents mean ± S.E. of three technical replicates. […] DAPI staining indicates the location of the nucleus. Scale bars, 20 μm.

AR = target: T2, AR (Homo sapiens, UniProt P10275, T878A); test: AR-responsive luciferase reporters (PSA (6.1 kb), PB, ARR3) in LNCaP cells, SINT1 and EPI-002 alone or combined; format: cell-based; settings: 1 nM R1881 48 h
T2 construct: endogenous in cells; host or cells: LNCaP
T2 sequence (P10275 1-920 T878A): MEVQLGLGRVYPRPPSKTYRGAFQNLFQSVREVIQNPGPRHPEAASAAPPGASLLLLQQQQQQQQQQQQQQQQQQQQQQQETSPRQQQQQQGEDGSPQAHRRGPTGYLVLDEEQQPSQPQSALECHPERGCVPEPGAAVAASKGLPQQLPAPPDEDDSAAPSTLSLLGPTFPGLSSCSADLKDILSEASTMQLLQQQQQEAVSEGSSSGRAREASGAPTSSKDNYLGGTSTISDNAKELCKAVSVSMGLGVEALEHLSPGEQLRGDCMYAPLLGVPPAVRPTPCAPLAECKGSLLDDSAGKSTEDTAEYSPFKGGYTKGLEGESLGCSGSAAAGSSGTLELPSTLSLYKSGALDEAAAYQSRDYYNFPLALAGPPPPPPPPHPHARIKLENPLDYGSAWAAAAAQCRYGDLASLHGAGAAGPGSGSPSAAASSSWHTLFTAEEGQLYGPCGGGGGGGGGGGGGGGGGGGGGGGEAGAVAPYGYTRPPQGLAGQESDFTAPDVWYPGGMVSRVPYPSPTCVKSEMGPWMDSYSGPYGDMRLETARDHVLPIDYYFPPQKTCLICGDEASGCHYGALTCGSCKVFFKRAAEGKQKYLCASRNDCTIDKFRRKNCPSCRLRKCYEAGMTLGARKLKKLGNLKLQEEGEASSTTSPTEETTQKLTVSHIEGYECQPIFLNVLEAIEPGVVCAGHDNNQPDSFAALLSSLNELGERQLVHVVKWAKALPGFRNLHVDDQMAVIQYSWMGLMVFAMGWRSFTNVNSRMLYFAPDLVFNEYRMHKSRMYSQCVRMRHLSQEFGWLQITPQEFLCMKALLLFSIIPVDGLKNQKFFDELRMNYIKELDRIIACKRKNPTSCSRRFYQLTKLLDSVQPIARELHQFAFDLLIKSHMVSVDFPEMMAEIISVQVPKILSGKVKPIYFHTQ
Procedure: LNCaP cells were transfected with AR-responsive PSA (6.1 kb)-luciferase, PB-luciferase, and ARR3-luciferase reporters. Forty-eight hours later, cells were pretreated for 1 h with SINT1 (0–24 μM), EPI-002 (0–31 μM), or a combination with a constant ratio of 1:1.3 for EPI-002/SINT1 concentration. Cells were then incubated with 1 nM R1881 for 48 h, and a luciferase assay was performed. IC50 values for SINT1 for the three reporters were calculated using GraphPad Prism (version 6.01; GraphPad Software). The combination index of SINT1 and EPI-002 was calculated using CalcuSyn software. Combination indices >1, 1, and <1 indicate antagonism, additive affect, and synergy, respectively.

Which stability [1] does the source give for `CCC(=O)NC(CC(C)C(Cl)(Cl)Cl)C(=O)N1C(=O)C=C(OC)C1CC(C)C(Cl)Cl` (centres unmarked) [SINT1, Sintokamide A] here?
Its stability is “labile”.

What about the “GR transcriptional activity (GRE-luciferase)” value [2] of the same compound?
Its value is “did not affect”.

And the IC50 (AR; IC50, ARR3-Luc)?
Its IC50 is 13.2 ± 1.19 µM.

What about the IC50 (AR; IC50, PB-Luc) of the same compound?
The IC50 was 11.6 ± 0.78 µM.

And the IC50 (AR; IC50, PSA (6.1 kb)-Luc)?
Its IC50 is 10.7 ± 1.55 µM.
